Measurements reported in patent US12378256B2, “Heterocyclic compound” (Takeda Pharmaceutical Company Limited, priority 2017, dated 2025).

Assays:
[1] = Rat PK test (cassette dosing); format: in vivo; settings: male SD rats, plasma; for Tmax: oral 1 mg/kg and iv 0.1 mg/kg given, route not stated for Tmax, read-out: Tmax (time to reach maximum plasma concentration); for clearance / MRT: intravenous 0.1 mg/kg; for clearance: read-out: CL total (total clearance) (converted); for MRT: read-out: MRT iv (mean residence time)
Method: As the rat, 8-week-old male SD rats (Japan SLC, Inc.) were used. They were fed on a solid commercially available diet (CE-2, CLEA Japan, Inc.) and allowed to freely ingest tap water as the drinking water. An intravenous administration solution for the rats was prepared by weighing a test compound, dissolving same in dimethylacetamide (DMA) (Wako Pure Chemical Industries, Ltd.), adding the same volume of 1,3-butanediol (Wako Pure Chemical Industries, Ltd.) and mixing by stirring to give a DMA:1,3-butanediol (1:1, v/v) solution. An oral administration solution was prepared by weighing a test compound, pulverizing same in an agate mortar, and gradually adding 0.5 w/v % aqueous methylcellulose solution to give a suspension. For intravenous administration, the solution was administered into femoral vein of the rats at 0.1 mg/0.5 mL/kg (salt converted to free form). For oral administration, the suspension was administered to the rats at 1 mg/5 mL/kg (salt converted to free form). The cassette dosing method was used for the both administration routes, and the test compound was administered in the following manner. • Compound of Example 20 (intravenous: 8 compounds cassette administration, oral: 5 compounds cassette administration) • Compound of Example 22 (intravenous: 5 compounds cassette administration, oral: 5 compounds cassette administration) • Compound of Example 31 (intravenous: 10 compounds cassette administration, oral: 5 compounds cassette administration) • Compound of Example 36 (intravenous: 10 compounds cassette administration, oral: 5 compounds cassette administration) • Compound of Example 44 (intravenous: 10 compounds cassette administration, oral: 5 compounds cassette administration) • Compound of Example 55 (intravenous: 6 compounds cassette administration, oral: 4 compounds cassette administration) • Compound of Example 74 (intravenous: 10 compounds cassette administration, oral: 5 compounds cassette administration) • Compound of Example 76 (intravenous: 9 compounds cassette administration, oral: 4 compounds cassette administration) • Compound of Example 77 (intravenous: 10 compounds cassette administration, oral: 5 compounds cassette administration) • Compound of Example 102 (intravenous: 10 compounds cassette administration, oral: 5 compounds cassette administration) • Compound of Example 109 (intravenous: 7 compounds cassette administration, oral: 4 compounds cassette administration)
In the case of intravenous administration, blood samples were collected from the tail vein at 5, 10, 15, 30 min, 1, 2, 4, 8 hr after administration, an anticoagulation treatment with heparin sodium (Shimizu Pharmaceutical Co., Ltd.) was performed, and plasma was collected after centrifugation and subjected to the measurement of drug concentration. In the case of oral administration, blood samples were collected from the tail vein at 15, 30 min, 1, 2, 4, 8 hr after administration, an anticoagulation treatment with heparin sodium was performed, and plasma was collected after centrifugation and subjected to the measurement of drug concentration.
All drug concentrations were measured by LC-MS/MS analysis. For a pharmacokinetics test, the plasma (50 μL) was placed in a tube, acetonitrile (150 μL) containing internal standard solution was added and they were mixed on a vortex mixer. Thereafter, the mixture was centrifuged (5000 rpm, 5 min, 4° C.). The supernatant (60 μL) after centrifugation was added to 10 mmol/L ammonium formate (160 μL) added earlier and mixed therewith. This sample was injected to LC/MS/MS. […]

MDR1 = biological target: T1, MDR1 (Homo sapiens, UniProt P08183); experiment: MDR1 membrane permeability test; format: in vitro ADME; settings: pH 7.4, efflux ratio (ER), human MDR1-expressing LLC-PK1 cells, 37° C., read-out: MDR1 substrate screening 1 μM (MDRSUB1)/Ratio (NUMBER)
T1 construct: expressed in transfected cells; host or cells: LLC-PK1 (porcine kidney cells)
Method: MDR1 Membrane Permeability Test
When MDR1 is expressed in excess in LLC-PK1 cell, which is a polar cell, MDR1 is localized in apical membrane (A), thus promoting transcellular transport from the basement membrane side (B) toward direction A. When a ratio to the transcellular transport in the opposite direction is taken and a ratio to a control cell in which a mock vector has been introduced is further taken, an efflux ratio of MDR1 to simple diffusion (corrected efflux ratio) is calculated. Similarly, when a brain/plasma concentration ratio in Mdr1(−/−) mouse is divided by a brain/plasma concentration ratio in wild-type mouse, an efflux ratio of Mdr1 to simple diffusion in blood-brain barrier (BBB) (Kp, brain ratio, higher value means lower central nervous system permeability) is calculated. Adachi Y. et al. (Reference 1) has reported a positive correlation between corrected efflux ratio and Kp, brain ratio (FIG. 5(C)), and efflux ratio in MDR1 expressing cell and Kp, brain ratio (FIG. 5(B)).
To confirm the central nervous system permeability of the compounds of the present invention, a MDR1 membrane permeability test was performed by the following method.
Digoxin and lucifer yellow (LY) were purchased from Sigma-Aldrich, Diclofenac, colchicine and alprenolol were purchased from Wako Pure Chemical Industries, Ltd., and other reagents used were commercially available products of special grade.
Human MDR1-expressing LLC-PK1 cells were cultured according to the report of Takeuchi et al. (Reference 2). Human MDR1-expressing LLC-PK1 cells were cultured in 10% fetal bovine serum (Invitrogen), 500 μg/ml G418 (Invitrogen), 150 ng/ml colchicine-containing M199 medium (Invitrogen) under 5% CO2 conditions at 37° C.
Transcellular transport was performed according to the report of Sugimoto et al. (Reference 3). The cells were cultured for 3 days on HTS Transwell (registered trademark) 96 well permeable support (pore size 0.4 μm, 0.143 cm^2 surface area, Corning Life Sciences) having polyethylene terephthalate membrane on which the cells had been seeded at 3.45×10^4 cells/well. After preincubation in M199 medium (containing 10 mmol/L HEPES, 1% BSA, pH 7.4) for 30 min, a drug solution (10 μmol/L digoxin, 200 μmol/L LY, […]) dissolved in M199 medium was added to the apical side or basolateral side of the Transwell by 75 or 250 μL each and the cells were cultured under 5% CO2 conditions at 37° C. After 1 hr, the sample was collected from the side opposite to the side where the drug solution was added, and the concentration of the test compound was measured by LC-MS/MS. As an internal standard substance, 100 ng/mL alprenolol and diclofenac were used. The analysis conditions were as follows. • LC: UFLC LC-20 (Shimadzu) • MS/MS: API4000 (AB Sciex Instruments) • LC condition: gradient method
[formula] • Amount: amount of transported digoxin/well • Area: surface area of cell monolayer (0.143 cm^2) • C0: concentration of drug solution added • Time: incubation time

T1 sequence (P08183 whole entry): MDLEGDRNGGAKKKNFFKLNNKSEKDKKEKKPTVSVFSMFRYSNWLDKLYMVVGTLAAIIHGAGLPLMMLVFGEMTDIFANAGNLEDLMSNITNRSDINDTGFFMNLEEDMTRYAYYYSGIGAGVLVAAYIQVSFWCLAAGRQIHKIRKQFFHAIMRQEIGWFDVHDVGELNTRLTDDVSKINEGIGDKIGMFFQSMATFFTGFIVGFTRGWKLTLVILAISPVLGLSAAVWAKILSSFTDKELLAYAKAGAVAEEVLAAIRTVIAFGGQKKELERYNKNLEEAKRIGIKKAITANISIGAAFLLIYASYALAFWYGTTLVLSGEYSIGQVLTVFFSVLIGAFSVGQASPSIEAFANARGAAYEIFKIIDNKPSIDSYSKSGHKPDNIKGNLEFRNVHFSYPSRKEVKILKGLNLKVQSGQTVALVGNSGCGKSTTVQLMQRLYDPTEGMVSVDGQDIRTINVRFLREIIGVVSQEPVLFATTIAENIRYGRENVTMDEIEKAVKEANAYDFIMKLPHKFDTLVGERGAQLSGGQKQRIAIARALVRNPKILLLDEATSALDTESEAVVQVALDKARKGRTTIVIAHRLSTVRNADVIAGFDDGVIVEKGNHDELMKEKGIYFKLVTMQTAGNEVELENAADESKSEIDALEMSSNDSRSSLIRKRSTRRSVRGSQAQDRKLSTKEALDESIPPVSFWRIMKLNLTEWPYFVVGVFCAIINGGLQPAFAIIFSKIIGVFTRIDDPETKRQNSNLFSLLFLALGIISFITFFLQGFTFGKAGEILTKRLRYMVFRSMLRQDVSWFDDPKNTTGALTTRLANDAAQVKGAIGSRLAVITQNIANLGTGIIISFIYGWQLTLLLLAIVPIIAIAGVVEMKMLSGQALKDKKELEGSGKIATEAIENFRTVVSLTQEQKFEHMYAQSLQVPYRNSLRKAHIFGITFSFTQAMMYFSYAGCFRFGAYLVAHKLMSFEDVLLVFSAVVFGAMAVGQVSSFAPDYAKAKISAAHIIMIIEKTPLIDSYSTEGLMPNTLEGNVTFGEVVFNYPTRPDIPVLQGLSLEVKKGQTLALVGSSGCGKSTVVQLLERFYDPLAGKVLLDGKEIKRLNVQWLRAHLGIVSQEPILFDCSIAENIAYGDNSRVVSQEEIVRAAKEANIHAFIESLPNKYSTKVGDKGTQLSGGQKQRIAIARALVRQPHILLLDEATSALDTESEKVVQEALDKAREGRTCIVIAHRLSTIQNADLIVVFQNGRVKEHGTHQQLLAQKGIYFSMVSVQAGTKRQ

Row | Compound | Tmax [1] | clearance [1] | MRT [1] | efflux ratio at 1 h, 1 μM (MDR1)
1 | Cn1cc(-c2ccc(C(F)c3cc(C(=O)N[C@H]4CCOC[C@@H]4O)nc4ccoc34)cc2)nn1 (single isomer, unassigned) [Example 55, 1,5-anhydro-2,3-dideoxy-3-(((7-(fluoro(4-(1-methyl-1H-1,2,3-triazol-4-yl)phenyl)methyl)furo[3,2-b]pyridin-5-yl)carbonyl)amino)-L-threo-pentitol] | 1.7 h | 30.2 mL/min/kg | 0.6 h | 6.5
2 | Cn1cc(-c2ccc(Cc3cc(C(=O)N[C@H]4CCOC[C@@H]4O)nc4ccoc34)cn2)cn1 [Example 36, 1,5-anhydro-2,3-dideoxy-3-(((7-((6-(1-methyl-1H-pyrazol-4-yl)pyridin-3-yl)methyl)furo[3,2-b]pyridin-5-yl)carbonyl)amino)-L-threo-pentitol] | 1.3 h | 5.45 mL/min/kg | 1.9 h | 9.1
3 | COCCNC(=O)c1ccc(Cc2cc(C(=O)N[C@H]3CCOC[C@@H]3O)nc3c2OCC3)cc1F [Example 76, 1,5-anhydro-2,3-dideoxy-3-(((7-(3-fluoro-4-((2-methoxyethyl)carbamoyl)benzyl)-2,3-dihydrofuro[3,2-b]pyridin-5-yl)carbonyl)amino)-L-threo-pentitol] | 0.8 h | 5.58 mL/min/kg | 1.2 h | 35
4 | O=C(N[C@H]1CCOC[C@@H]1O)c1cc(Cc2ccc(C(=O)NC[C@@H]3CCCO3)c(F)c2)c2c(n1)CCO2 [Example 77, 1,5-anhydro-2,3-dideoxy-3-(((7-(3-fluoro-4-(((2S)-tetrahydrofuran-2-ylmethyl)carbamoyl)benzyl)-2,3-dihydrofuro[3,2-b]pyridin-5-yl)carbonyl)amino)-L-threo-pentitol] | 1 h | 8.13 mL/min/kg | 0.8 h | 25
5 | O=C(N[C@H]1CCOC[C@@H]1O)c1cc(Cc2ccc(C(=O)NC[C@@H]3CCCO3)c(F)c2)c2occc2n1 [Example 102, 1,5-anhydro-2,3-dideoxy-3-(((7-(3-fluoro-4-(((2S)-tetrahydrofuran-2-ylmethyl)carbamoyl)benzyl)furo[3,2-b]pyridin-5-yl)carbonyl)amino)-L-threo-pentitol] | 1 h | 11.7 mL/min/kg | 0.9 h | 20
6 | COCCNC(=O)c1ccc(Cc2cc(C(=O)N[C@H]3CCOC[C@@H]3O)nc3ccoc23)cc1F [Example 109, 1,5-anhydro-2,3-dideoxy-3-(((7-(3-fluoro-4-((2-methoxyethyl)carbamoyl)benzyl)furo[3,2-b]pyridin-5-yl)carbonyl)amino)-L-threo-pentitol] | 1 h | 6.73 mL/min/kg | 1.5 h | 10

Now from value to compound:

Row | Tmax [1] | clearance [1] | MRT [1] | efflux ratio at 1 h, 1 μM (MDR1) | Compound
7 | 2 h | 4.1 mL/min/kg | 1.8 h | 4.8 | Cn1cc(-c2ccc(Cc3cc(C(=O)N[C@H]4CCOC[C@@H]4O)nc4ccoc34)cc2)nn1 [Example 20, 1,5-anhydro-2,3-dideoxy-3-(((7-(4-(1-methyl-1H-1,2,3-triazol-4-yl)benzyl)furo[3,2-b]pyridin-5-yl)carbonyl)amino)-L-threo-pentitol]
8 | 2 h | 4.67 mL/min/kg | 1.9 h | 2.6 | O=C(N[C@H]1CCOC[C@@H]1O)c1cc(Cc2ccc(-n3cccn3)cc2)c2c(n1)CCO2 [Example 22, 1,5-anhydro-2,3-dideoxy-3-(((7-(4-(1H-pyrazol-1-yl)benzyl)-2,3-dihydrofuro[3,2-b]pyridin-5-yl)carbonyl)amino)-L-threo-pentitol]
9 | 1 h | 3.33 mL/min/kg | 1.5 h | 11 | Cn1cc(-c2ccc(Cc3cc(C(=O)N[C@H]4CCOC[C@@H]4O)nc4c3OCC4)cc2)nn1 [Example 31, 1,5-anhydro-2,3-dideoxy-3-(((7-(4-(1-methyl-1H-1,2,3-triazol-4-yl)benzyl)-2,3-dihydrofuro[3,2-b]pyridin-5-yl)carbonyl)amino)-L-threo-pentitol]
10 | 1.3 h | 4.77 mL/min/kg | 1.3 h | 5.5 | Cn1cc(-c2ccc(Cc3cc(C(=O)N[C@H]4CCOC[C@@H]4O)nc4c3OCC4)cc2)cn1 [Example 44, 1,5-anhydro-2,3-dideoxy-3-(((7-(4-(1-methyl-1H-pyrazol-4-yl)benzyl)-2,3-dihydrofuro[3,2-b]pyridin-5-yl)carbonyl)amino)-L-threo-pentitol]
11 | 0.8 h | 14 mL/min/kg | 0.9 h | 11 | Cn1cnc(-c2ccc(Cc3cc(C(=O)N[C@H]4CCOC[C@@H]4O)nc4c3OCC4)cc2)c1 [Example 74, 1,5-anhydro-2,3-dideoxy-3-(((7-(4-(1-methyl-1H-imidazol-4-yl)benzyl)-2,3-dihydrofuro[3,2-b]pyridin-5-yl)carbonyl)amino)-L-threo-pentitol]
